Experimental data from US8946439B2, “Amide compounds, compositions and uses thereof” (Evotec AG, priority 2008, dated 2015).
pIC50: −log10 of the molar value. Like-named read-outs stand apart in the source and are kept apart here.

Assays:
hP2X2/3H = target: T1, hP2X2/3H (Homo sapiens, UniProt P56373+Q9UBL9); test: Calcium uptake assay (P2X antagonist assay), P2X2/3 heteromer; assay type: cell-based; conditions: hP2X2/3H; for IC50: calcium uptake assay, read-out: IC50 hP2X2/3H (nM), Ca Influx; for pIC50: Ca influx (calcium uptake assay), read-out: IC50 hP2X2/3H
T1 construct: expressed in transfected cells; host or cells: e.g. HEK293 or 1321N1
T1 sequence (Q9UBL9 1-471): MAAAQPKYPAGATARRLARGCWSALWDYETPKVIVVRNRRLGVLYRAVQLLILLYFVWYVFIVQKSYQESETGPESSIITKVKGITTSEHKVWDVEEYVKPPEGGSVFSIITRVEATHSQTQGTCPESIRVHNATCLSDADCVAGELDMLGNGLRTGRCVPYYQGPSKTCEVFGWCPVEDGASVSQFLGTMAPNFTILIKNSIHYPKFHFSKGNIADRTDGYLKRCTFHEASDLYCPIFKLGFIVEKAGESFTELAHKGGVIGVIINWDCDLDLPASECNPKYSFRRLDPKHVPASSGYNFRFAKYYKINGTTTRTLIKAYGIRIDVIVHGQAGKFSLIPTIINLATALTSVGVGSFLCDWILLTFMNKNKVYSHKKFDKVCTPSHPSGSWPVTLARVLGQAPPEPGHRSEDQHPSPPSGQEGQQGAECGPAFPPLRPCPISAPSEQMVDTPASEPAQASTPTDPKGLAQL
T1 sequence (P56373 1-397): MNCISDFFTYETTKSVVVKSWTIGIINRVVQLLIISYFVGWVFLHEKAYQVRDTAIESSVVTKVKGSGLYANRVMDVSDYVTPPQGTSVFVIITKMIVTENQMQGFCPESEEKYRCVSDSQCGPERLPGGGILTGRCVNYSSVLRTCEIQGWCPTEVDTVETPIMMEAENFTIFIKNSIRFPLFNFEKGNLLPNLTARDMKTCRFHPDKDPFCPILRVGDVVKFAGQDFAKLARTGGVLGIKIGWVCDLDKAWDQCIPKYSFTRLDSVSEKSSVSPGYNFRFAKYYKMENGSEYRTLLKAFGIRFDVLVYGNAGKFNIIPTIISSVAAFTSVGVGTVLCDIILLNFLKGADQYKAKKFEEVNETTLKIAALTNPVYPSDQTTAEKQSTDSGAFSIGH
Outline: (§1)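 Stably or transiently transfected HEK293 or 1321N1 cells; the heteromer is made by adding P2X3 to a P2X2-stable line, with heteromer function isolated pharmacologically. The peak-minus-baseline FLIPR calcium signal gives % inhibition and a 4-parameter-logistic IC50.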

hP2X3 = target: T2, hP2X3 (Homo sapiens, UniProt P56373); test: Calcium uptake assay (P2X antagonist assay), P2X3 homomer; assay type: cell-based; conditions: hP2X3; for IC50: calcium uptake assay, read-out: IC50 hP2X3 (nM), Ca Influx; for pIC50: Ca influx (calcium uptake assay), read-out: IC50 hP2X3
T2 construct: expressed in transfected cells; host or cells: e.g. HEK293 or 1321N1
T2 sequence (P56373 1-397): T1 sequence (P56373 1-397)
Outline: as §1

Row | SMILES | IC50 (hP2X2/3H) [nM] | IC50 (hP2X3) [nM] | pIC50 (hP2X2/3H) | pIC50 (hP2X3)
1 | Cc1ccc(-c2cc(C(=O)NCc3cnc(C)nc3)cc(C(=O)N3CCCCC3)c2)cc1 [Compound 18, 4′-Methyl-N-((2-methylpyrimidin-5-yl)methyl)-5-(piperidine-1-carbonyl)biphenyl-3-carboxamide] | < 100 | < 100 | – | –
2 | Cc1ccc(-c2cc(C(=O)NCc3ccc(Cl)nc3)cc(C(=O)N3CC(O)C3)c2)cc1 [Compound 131] | < 100 | < 100 | – | –
3 | Cc1ccc(-c2cc(C(=O)NCc3cnc(C)nc3)cc(C(=O)N3CC(O)C3)c2)cc1 [Compound 29, 5-(3-Hydroxyazetidine-1-carbonyl)-4′-methyl-N-((2-methylpyrimidin-5-yl)methyl)biphenyl-3-carboxamide] | < 100 | < 100 | – | –
4 | Cc1ccc(-c2cc(C(=O)N[C@H](C)c3ccc(C(F)(F)F)nc3)cc(C(=O)N3CCCC3)c2)cc1 [Compound 46] | < 100 | 100 to 500 | – | –
5 | COc1ccc([C@@H](CO)NC(=O)c2cc(C(=O)N(C)CC(C)C)cc(-c3ccc(C)cc3)c2)cn1 [Compound 7, (S)—N3-(2-hydroxy-1-(6-methoxypyridin-3-yl)ethyl)-N5-isobutyl-N5,4′-dimethyl-biphenyl-3,5-dicarboxamide] | 100 to 500 | 100 to 500 | – | –
6 | Cc1ccc(-c2cc(C(=O)NCc3ccc4cccnc4c3)cc(S(C)(=O)=O)c2)cc1 [Compound 23] | 100 to 500 | 100 to 500 | – | –
7 | Cc1ncc(CNC(=O)c2cc(C(=O)N3CCCC3)cc(-c3ccc(Cl)cc3)c2)cn1 [Compound 40] | 100 to 500 | < 100 | – | –
8 | Cc1ccc(-c2cc(C(=O)NC(C)c3ccc4c(c3)OCO4)cc(C(=O)N3CCCC3)c2)cc1 (centres unmarked) [Compound 97] | 100 to 500 | 100 to 500 | – | –
9 | Cc1ccc(-c2cc(C(=O)NCc3ccc(C)nc3)cc(C(=O)N3CCNCC3)c2)cc1 [Compound 124] | 100 to 500 | < 100 | – | –
10 | Cc1ccc(-c2cc(C(=O)N[C@H](C)c3ccc(C(F)(F)F)nc3)cc(C(=O)N3CCCC3)c2)nc1 [Compound 135] | < 100 | < 100 | – | –
11 | Cc1ccc(CNC(=O)c2cc(-c3ccc(C)c(F)c3)cc(S(C)(=O)=O)c2)cn1 [Compound 137] | 100 to 500 | 100 to 500 | – | –
12 | CCCS(=O)(=O)c1cc(C(=O)N[C@@H](C)CO)cc(-c2ccc(C)cc2)c1 [Compound 42] | > 1000 | < 100 | – | –
13 | Cc1ccc(-c2cc(C(=O)NCc3ccc(C(F)(F)F)nc3)cc(S(C)(=O)=O)c2)cc1 [Compound 37, 4′-Methyl-5-(methylsulfonyl)-N-((6-(trifluoromethyl)pyridin-3-yl)methyl)biphenyl-3-carboxamide] | 100 to 500 | 100 to 500 | – | –
14 | Cc1ccc(CNC(=O)c2cc(-c3ccc(Cl)c(C(F)(F)F)c3)cc(S(C)(=O)=O)c2)cn1 [Compound 139] | > 1000 | > 1000 | – | –
15 | Cc1ccc(-c2cc(C(=O)NCc3ccc(C)nc3)cc(C(=O)N3CC[C@@H](N)C3)c2)cc1 [Compound 101] | 501 to 1000 | 100 to 500 | – | –
16 | COc1ncc([C@@H](C)NC(=O)c2cc(-c3ccc(C)cc3)cc(S(C)(=O)=O)c2)cn1 [Compound 114] | 100 to 500 | < 100 | – | –
17 | Cc1ccc(-c2cc(C#N)cc(C(=O)NCc3cnc(C)nc3)c2)cc1 [Compound 154] | 100 to 500 | 100 to 500 | – | –
18 | Cc1ccc(-c2cc(C(=O)N[C@H](C)c3cnn(C)c3C)cc(C(=O)N3CCCC3)c2)cc1 [Compound 109] | 501 to 1000 | 100 to 500 | – | –
19 | Cc1ccc(-c2cc(S(=O)(=O)N3CCCC3)cc(C(=O)NCc3ccc(C)nc3)c2C)cc1 [Compound 68] | > 1000 | 100 to 500 | – | –
20 | Cc1ccc(-c2cc(C(=O)NCc3ccc(Cl)c(-n4cnnc4)c3)cc(C(=O)N3CCCC3)c2)cc1 [Compound 102] | < 100 | < 100 | – | –
21 | COc1ncc(CNC(=O)c2cc(C(=O)N3CC(O)C3)cc(-c3ccc(C)cc3)c2)cn1 [Compound 133] | 100 to 500 | < 100 | – | –

Now from value to compound:

Row | IC50 (hP2X2/3H) [nM] | IC50 (hP2X3) [nM] | pIC50 (hP2X2/3H) | pIC50 (hP2X3) | SMILES
22 | – | – | < 6.00 | > 7.00 | Cc1ccc(-c2cc(C(=O)NCc3ccc(C)nc3)cc(C(O)CN(C)C)c2)cc1 (centres unmarked) [Compound 367]
23 | – | – | > 7.00 | > 7.00 | Cc1ccc(-c2cc(OCCO)cc(C(=O)N[C@H](C)c3ccc(C)nc3)c2)c(C#N)c1 [Compound 305]
24 | – | – | 6.30 to 7.00 | > 7.00 | COCCOc1cc(C(=O)N[C@H](C)c2ccc(C)nc2)cc(-c2ccc(C)cn2)c1 [Compound 265]
25 | 100 to 500 | 100 to 500 | – | – | Cc1ccc(-c2cc(C(=O)NCc3ccc(C)nc3)cc(C(=O)N3Cc4ccccc4C3)c2)cc1 [Compound 185, 5-(Isoindoline-2-carbonyl)-4′-methyl-N-((6-methylpyridin-3-yl)methyl)biphenyl-3-carboxamide]
26 | – | – | > 7.00 | > 7.00 | Cc1ccc(-c2cc(C(=O)N[C@H](C)c3cnc(C)nc3)cc(C(O)c3nccs3)c2)cc1 (some centres unmarked) [Compound 283]
27 | – | – | > 7.00 | > 7.00 | Cc1ccc(-c2cc(OC(C)CO)cc(C(=O)N[C@H](C)c3ccc(C)nc3)c2)c(C#N)c1 (some centres unmarked) [Compound 377]
28 | – | – | 6.30 to 7.00 | > 7.00 | Cc1ccc(-c2cc(CO)cc(C(=O)NCc3cnc(C)nc3)c2)c(C#N)c1 [Compound 304]
29 | – | – | > 7.00 | > 7.00 | Cc1ccc(-c2cc(OC(C)CO)cc(C(=O)N[C@H](C)c3ccc(C)nc3)c2)cc1 (some centres unmarked) [Compound 346]
30 | – | – | 6.30 to 7.00 | > 7.00 | Cc1ccc(-c2cc(Oc3ncccn3)cc(C(=O)N[C@H](C)c3ccc(C)nc3)c2)c(C#N)c1 [Compound 246]
31 | – | – | > 7.00 | > 7.00 | COCCOc1cc(C(=O)N[C@H](C)c2cnc(C)nc2)cc(-c2ccc(C)cc2C#N)c1 [Compound 253]
32 | – | – | 6.00 to 6.30 | 6.30 to 7.00 | Cc1ccc(-c2cc(Oc3ncccn3)cc(C(=O)NCc3cnc(C)nc3)c2)cc1 [Compound 234]
33 | – | – | > 7.00 | > 7.00 | Cc1ccc(-c2cc(C(=O)N[C@H](C)c3ccc(C)nc3)cc(C(O)CO)c2)c(C#N)c1 (some centres unmarked) [Compound 298]
34 | – | – | 6.30 to 7.00 | 6.30 to 7.00 | Cc1ccc(-c2cc(Oc3nc4c(s3)CCCC4)cc(C(=O)N[C@H](C)c3ccc(C)nc3)c2)cc1 [Compound 393]
35 | – | – | 6.30 to 7.00 | > 7.00 | Cc1ccc(-c2cc(OC3CNCC3O)cc(C(=O)N[C@H](C)c3ccc(C)nc3)c2)nc1 (some centres unmarked) [Compound 339]
36 | – | – | > 7.00 | > 7.00 | Cc1ccc(-c2cc(OCC3CCCO3)cc(C(=O)N[C@H](C)c3ccc(C)nc3)c2)nc1 (some centres unmarked) [Compound 335]
37 | – | – | > 7.00 | > 7.00 | COCCOc1cc(C(=O)N[C@H](C)c2cnc(C)nc2)cc(-c2ccc(C)cc2)c1 [Compound 251]
38 | – | – | > 7.00 | > 7.00 | COCC(C)Oc1cc(C(=O)N[C@H](C)c2ccc(C)nc2)cc(-c2ccc(C)cn2)c1 (some centres unmarked) [Compound 328]
39 | – | – | 6.00 to 6.30 | 6.30 to 7.00 | Cc1ccc(-c2cc(CN3CCN(C)CC3)cc(C(=O)NCc3ccc(C)nc3)c2)nc1 [Compound 244]
40 | – | – | 6.30 to 7.00 | > 7.00 | Cc1ccc(-c2cc(Oc3nccs3)cc(C(=O)NCc3ccc(C)nc3)c2)c(C#N)c1 [Compound 260]
41 | – | – | > 7.00 | > 7.00 | Cc1ccc(-c2cc(OC3COCC3O)cc(C(=O)N[C@H](C)c3ccc(C)nc3)c2)cc1 (stereo partly drawn) [Compound 336, 5-(4-Hydroxytetrahydrofuran-3-yloxy)-4′-methyl-N—((R)-1-(6-methylpyridin-3-yl)ethyl)biphenyl-3-carboxamide]
42 | – | – | 6.30 to 7.00 | > 7.00 | Cc1ccc(-c2cc(OCC3COCCO3)cc(C(=O)N[C@H](C)c3ccc(C)nc3)c2)cc1 (some centres unmarked) [Compound 326]
43 | 501 to 1000 | 100 to 500 | – | – | Cc1ccc(-c2cc(C(=O)NCc3ccc(C)nc3)cc(C(=O)N(C)[C@@H]3CCNC3)c2)cc1 [Compound 165, (R)—N3,4′-Dimethyl-N5-((6-methylpyridin-3-yl)methyl)-N3-(pyrrolidin-3-yl)biphenyl-3,5-dicarboxamide]
44 | – | – | > 7.00 | > 7.00 | Cc1ccc(-c2cc(C(=O)N[C@H](C)c3ccc(C)nc3)cc(C(C)O)c2)nc1 (some centres unmarked) [Compound 331]
45 | > 1000 | > 1000 | – | – | Cc1ccc(-c2cc(C#N)cc(C(=O)NCc3cnc(C)nc3)c2)nc1 [Compound 155]
46 | – | – | > 7.00 | > 7.00 | CCC(O)c1cc(C(=O)N[C@H](C)c2ccc(C)nc2)cc(-c2ccc(C)cc2)c1 (some centres unmarked) [Compound 379]
